Results published in patent publication US20130165489A1, “Small Molecule Modulators of HIV-1 Capsid Stability and Methods Thereof” (The Trustees of the University of Pennsylvania, priority 2010, published 2013).

Tests used:
CANTD = CANTD (Human immunodeficiency virus type 1 group M subtype B, UniProt P12493); conditions: binding to CANTD; read-out: equilibrium dissociation constant (KD); cited from earlier work
HIV-1NL4-3 CA = HIV-1NL4-3 CA (Human immunodeficiency virus type 1 group M subtype B, UniProt P12493); test: Surface plasmon resonance direct binding to HIV-1 CA; conditions: SPR
Description: Interaction analyses were performed on a Biacore 3000 optical biosensor (Biacore, Piscataway Township, NJ) with simultaneous monitoring of two flow cells Immobilization of the CA protein to CM7 sensor chips was performed following the standard amine coupling procedure according to the manufacturer's specifications. Briefly, carboxyl groups on the sensor chip surface were activated by injection of 50 μL of a solution containing 0.2 M EDC (1-ethyl-3-[3-dimethylamino-propyl]carbodiimide hydrochloride) and 0.05 M NHS(N-hydroxysuccinimide) at a flow rate of 5 μL min^−1. Next, the 50 μL of CA protein at a concentration of 6 μM in pH 5.0, 10 mM sodium acetate buffer was passed over the chip surface at 25° C. at a flow rate of 5 μL min^−1 Then, after unreacted protein had been washed out, excess active ester groups on the sensor surface were capped by the injection of 50 μL of 1 M ethanolamine (pH 8.0) at a flow rate of 5 μL min^−1. A reference surface with the nonspecific anti-gp120 antibody 17b (Thali et al., 1993, J. Virol. 67:3978-88) immobilized was generated at the same time under the same conditions and was used as background to correct nonspecific binding and for instrument and buffer artifacts.
Stock solutions of CMPD-E and CMPD-F were prepared by dissolving the compounds in 100% dimethyl sulfoxide (DMSO) to a final concentration of 10 mM. To prepare the sample for analysis, 30 μL of the compound stock solution was added to sample preparation buffer (25 mM Tris-HCl, 150 mM NaCl, pH 7.5) to a final volume of 1 mL and mixed thoroughly. Preparation of analyte in this manner ensured that the concentration of DMSO was matched with that of running buffer with 3% DMSO. Lower concentrations of each compound were then prepared by twofold serial dilutions into running buffer (25 mM Tris-HCl, 150 mM NaCl, 3% DMSO, pH 7.5). These compound dilutions were then injected over the control and CA surfaces at a flow rate of 50 μL min^−1, for a 2-min association phase, followed by a 5-min dissociation phase. […]

[1] = system: single-round competent HIV-1NL4-3 virus; test: Single-round assay, production of infectious virus from compound-treated producer cells
producer cells (293T) = format: cell-based, human
Text: Moreover, these compounds appeared to be working at different stages of the viral life-cycle—one at an early post-entry event (CMPD-A) and the other at an assembly or post-integration event in HIV-1 replication (CMPD-D).

[2] = system: recombinant luciferase-expressing HIV-1 bearing the envelope glycoprotein of the HIV-1YU-2 strain; test: Single-round infection assay, HIV-1 with YU-2 envelope on Cf2Th-CCR5 cells; conditions: Cf2Th-CCR5 cells; YU-2 envelope

Cc1ccc(NC(=O)NCCSCc2ccc(CN(C)C)o2)cc1Cl [CAP-1, N-(3-chloro-4-methylphenyl)-N′-[2-[([5-[(dimethylamino)-methyl]-2-furyl]-methyl)-sulfanyl]ethyl]urea]
Kd (CANTD): ~800 µM

CC1(C)CC(NC(=O)C(=O)Nc2ccc(Cl)cc2)CC(C)(C)N1 [CMPD-F, N1-(4-chlorophenyl)-N2-(2,2,6,6-tetramethylpiperidin-4-yl)oxalamide, reference compound]
interaction with sensor-chip immobilized HIV-1 CA (HIV-1NL4-3 CA): displayed no such interaction

Cc1ccc(C(C(=O)NC2CCCCC2)N(Cc2ccccc2Cl)C(=O)c2snc(C(=O)NC3CCCCC3)c2N)o1 (stereo not shown) [CMPD-D, 4-amino-N5-(2-chlorobenzyl)-N3-cyclohexyl-N5-(2-(cyclohexylamino)-1-(5-methylfuran-2-yl)-2-oxoethyl)isothiazole-3,5-dicarboxamide]
antiretroviral activity, assembly or post-integration event [1]: significant antiretroviral activity
LDH release versus untreated cells (producer cells (293T)): Neither CMPD-A nor CMPD-D promoted LDH release
activity in the single-round infection assay [2]: not to have any effect on HIV-1 infection

COC(=O)c1ccc(-c2nc(-c3ccc4oc5ccc(-c6nc(-c7ccc(C(=O)OC)cc7)[nH]c6-c6ccccc6)cc5c4c3)c(-c3ccccc3)[nH]2)cc1 [CMPD-B, dimethyl 4,4′-(4,4′-(dibenzo[b,d]furan-2,8-diyl)bis(5-phenyl-1H-imidazole-4,2-diyl))dibenzoate]
activity in the single-round infection assay [2]: lost all activity

O=C(O)c1ccc(-c2nc(-c3ccccc3)c(-c3ccc4oc5ccccc5c4c3)[nH]2)cc1 [CMPD-C, 4-(5-(dibenzo[b,d]furan-2-yl)-4-phenyl-1H-imidazol-2-yl)benzoic acid]
activity in the single-round infection assay [2]: retained the activity of the parental molecule
